According to ChEMBL document CHEMBL4043141, “Synthesis and biological investigation of tetrahydropyridopyrimidinone derivatives as potential multireceptor atypical antipsychotics” (Bioorg Med Chem, 2017):

How the values were obtained:
in vitro [1] = conditions: human, liver microsomes
in vitro [2] = conditions: human, liver microsomes; remark: listed apart in the source

Row | Compound | remaining at 1 h, 2 µM (in vitro [1]) [%] | remaining at 0.5 h, 2 µM (in vitro [2]) [%]
1 | Cc1nc2n(c(=O)c1CCN1CCC(c3noc4cc(F)ccc34)CC1)CCCC2O (centres undefined) [PALIPERIDONE] | 100 | 100
2 | Cc1nc2n(c(=O)c1CCN1CCC(c3noc4cc(F)ccc34)CC1)CCCC2 [RISPERIDONE] | 75 | 100
